Assay [1] concerns coronary arteries. Kind of assay: Mechanical injury coronary vasospasm protocol (Protocol 2). To be noted: serotonin 67 μmol/liter IC; U46619 67 nmol/liter or 1 nmol/liter; ET1 ≦10 nmol/liter; AII ≦10 μmol/liter. It is filed as in vivo, rhesus monkeys (Macaca mulatta). The text has this:
A separate mechanical injury, Protocol 2, was used in three additional monkeys (one male, two ovx). The injury step of Protocol 2, was deliberate mechanical stretching of the LAD or left main coronary artery with a 5F catheter.
In Protocol 2, steps 1-5 were the same as in Protocol 1. The remaining steps were as follows:
7. IC injection of angiotensin II (sequential doses to 10 μmol/liter);
8. Injury by stretching the coronary artery with a 5F catheter;
9. IC injection of serotonin (sequential doses to 1 mmol/liter);
(§1) 10. IC injection 15 minutes later with 1 or 10 μmol/liter nitrendipine or Ro 40-5967 (mibefradil);
11. IC injection of […] (sequential doses to 10 μmol/liter); and
(§2) 12. IC injection 15 minutes later with 1 or 10 μmol/liter nitrendipine or Ro 40-5967.
Putative coronary vasospasm stimuli were judged primarily by actions on large coronary artery diameters, analyzed as diameter of the most proximal focus of vasospasm at end-diastole from video-taped images recorded at 30 frames/s. We used the image analysis program Image Pro to measure the diameters from single frames acquired with an Imagraph frame grabber in a Pentium computer. We used the 3F catheter tip radio-opaque marker ring (1.0 mm) for calibration and determined minimal and maximal diameters just distal to the constriction. All responses to interventions were also X-ray imaged immediately (15 to 30 s after injection) and at exactly 3 minutes (and 15 minutes if there was vasospasm) after injection.

For assay [2], the system named is coronary arteries. Kind of assay: animal or person. To be noted: Macaca mulatta, read-out: EC50 (-log mol/liter) (converted).
Assay [3] deals with coronary arteries.
For assay [4], the system named is coronary arteries. Kind of assay: Relief of coronary vasospasm by intracoronary Ca2+ antagonist. It counts as in vivo, rhesus monkeys (Macaca mulatta). The protocol: The eighth to tenth steps, which were 1 ml injections of 100 μmol/liter serotonin and 1 μmol/liter U46619 combined, were the critical steps. These concentrations of serotonin and U46619, injected in three repeated challenges, provoked drug-induced vasospasm. Sensitivity was determined by whether the vasospasm response occurred to the first, second or third stimulus, allowing at least a 7-minute delay from one injection to the next. For three of these seven ovx monkeys, 1-2 nM endothelin-1 (alone and plus serotonin) and 1 μmol/liter angiotensin-II (alone and plus serotonin) steps were administered between steps 10 and 11 (as additional challenges), but these extra steps never produced vasospasm. […] Step 12 was a Ca^2+ antagonist, either nitrendipine or mibefradil, as a vasodilator to relieve the vasospasm or cardiogenic shock that was the end point.
as §1, §2
To allow monkeys to recover and prevent death due to cardiogenic shock, we followed combined serotonin and U46619 stimulation with an IC Ca^2+ antagonist, either nitrendipine or mibefradil, at the end of the 15 minute vasospasm, except for that in FIG. 2. […] In monkeys with severe vasoconstriction and low heart rates (<90 beats/minute), Ca^2+ antagonists effected increases to 90 to 200 beats/minute due to reversal of atrioventricular […] conduction blocks (evident in the recovery of heart rate shown in Table 2).

“Also recorded” adds a separate entry of the source.

For the compound `NCCc1c[nH]c2ccc(O)cc12` [Serotonin, serotonin], the “coronary vasospasm with mechanical injury (5F catheter stretch)” value in assay [1] is “caused coronary vasospasm at multiple sites; also recorded: Vasospasm was stimulated”. Besides, the EC50 in assay [2] was 0.000158 mol/L. Besides, the Spasms/N in assay [3] (Protocol 1, number of animals with vasospasm / number of animals) is given as 0/8. Besides, in assay [3] (Protocol 1, syringe concentration of the named vasoconstrictor causing 50% reduction of diameter from control, combined stimuli with 100 μmol/liter serotonin), the “ED50 (-log mol/liter)” value is recorded as 2.5 -log mol/liter. Moreover, the “vasoactivity / constriction of arteries on IC injection of single agent” value in assay [3] (serotonin 67 nmol/liter to 667 μmol/liter, U46619 6.7 to 2,000 nmol/liter) is given as “vasoactive in all animals”. The “coronary vasospasm on IC injection (no mechanical injury)” value in assay [3] (serotonin 6.7 or 200 μmol/liter alone, U46619 6.7 to 2,000 nmol/liter alone, AII up to 200 nmol/liter, combination 6.7 μmol/liter serotonin and 67 nmol/liter U46619, triple combination with ET1) is “vasospasm could not be found”.

For `COCC(=O)O[C@]1(CCN(C)CCCc2nc3ccccc3[nH]2)CCc2cc(F)ccc2[C@@H]1C(C)C` [mibefradil], the “relief of coronary vasospasm” value in assay [4] (IC injection, nitrendipine 1 to 10 μmol/liter, mibefradil 0.1 to 10 μmol/liter, not allowing for dilution) was “immediately effective in relieving vasospasm”. In addition, in assay [4] (Mibefradil IC 0.1 to 10 μmol/liter, from diastolic levels as low as 10 to 20 mm Hg), the “blood pressures returned to normal ranges (minimums, systolic/diastolic)” value is 100/60. Besides, the “blood pressure after IC mibefradil” value in assay [4] (one MPA monkey of Example 2, nadir 38/20 mm Hg, after 15 minutes vasospasm) is given as 124/84.
